PubChem BioAssay AID1918994 (Molecular Pharmacology Branch, DTP, NCI, 2023)
Blank lines part the entries; values can stand above or below the compound they belong to.

System: 292921-168-R-J2-PDC complex spheroid growth
Experiment: Anticancer human tumor 292921-168-R-J2-PDC patient-derived pancreatic carcinoma cell line growth inhibition [AhR]
Conditions: for IC50: curve of first compound; for viability, T/C: stronger effect = lower value
Description: Multicellular complex tumor spheroid response to aryl hydrocarbon receptor antagonists in combination with a variety of drugs and investigational agents in selected tumor cell lines
The current study was undertaken to assess response to aryl hydrocarbon receptor antagonists in combination with standard-of-care drugs and investigational agents in solid tumor complex spheroid models. Complex spheroids include a stromal component modeled by human endothelial cells (HUVEC) and fibroblasts modeled by human mesenchymal stem cells (MSCs). The concentration ranges selected for each drug and investigational agent were based upon clinically achievable concentrations if the clinical Cmax of the agent was known.
Compounds. The drugs and investigational agents: BAY 2416964 (NSC825713), GNF351 (NSC835774), CH-223191 (NSC835775), CPI-455 (NSC825282), aza-TdCyd (NSC777586), decitabine (NSC127716), belinostat (NSC758774), entinostat (NSC756642), pevonedistat (NSC761192), tazemetostat (NSC777109), talazoparib (NSC765396), olaparib (NSC753686), selinexor (NSC780203), nedisertib (M3814, NSC802822), bortezomib (NSC756655), venetoclax (NSC766270), doxorubicin (NSC123127), elimusertib (BAY189344, NSC800525), ceralasertib (AZD6738, NSC777638), TAK-243 (NSC785004), alisertib (NSC759677), etoposide (NSC141540), topotecan (NSC609699), eribulin (NSC707389), gemcitabine (NSC613327), carboplatin (NSC241240), cisplatin (NSC119875), and SN-38 (NSC673596) were obtained from the National Cancer Institute (NCI) Developmental Therapeutics Program Chemical Repository (32). The FDA-approved anticancer drug set is available from the Developmental Therapeutics Program at https://dtp.cancer.gov/organization/dscb/obtaining/available plates.htm. […] The stock solutions were prepared in dimethyl sulfoxide (DMSO, Sigma-Aldrich, St. Louis, MO, cat. D2650), except for the platinum compounds which were prepared in saline (Quality Biological, Gaithersburg, MD, cat. 114-055-101), at 800-fold the tested concentration and stored at -70 degrees C prior to their use. All drugs and investigational agents were tested over a range starting from a high concentration at or near the clinical Cmax and decreasing in half-log increments. If the clinical Cmax for an agent had not been determined, the highest concentration tested was 10 microM (Table 1).
Cell Culture. All cells were maintained in an incubator at 37 degrees C and 5% CO2 with 95% humidity. The PDC lines were cultured according to standard operating procedures established by the NCI PDMR (https://pdmr.cancer.gov). Briefly, all PDCs were thawed and cultured in Matrigel-coated flasks prepared with a working solution of 1X Ham's F-12 nutrient mix, without supplementation (Invitrogen, Waltham, MA, cat. 11765054), 100 U/mL penicillin-streptomycin (Invitrogen, cat. 15140122), and 2.5% Matrigel (Corning Inc., Corning, NY, cat. 354248) for the first three passages. All PDCs were cultured in complete DMEM/F-12 media containing advanced DMEM/F-12 (Invitrogen, cat. 12634028), 4.9% defined fetal bovine serum, heat inactivated (HyClone Laboratories Inc., Logan, UT, cat. SH30070.03HI), 389 ng/mL hydrocortisone (Sigma-Aldrich, cat. H4001), 9.7 ng/mL human EGF recombinant protein (Invitrogen, cat. PHG0313), 23.4 microg/mL adenine (Sigma-Aldrich, cat. A2786), 97.3 U/mL penicillin-streptomycin (Invitrogen, cat. 15140122), 1.9 mM L-glutamine (Invitrogen, cat. 25030081), and 9.7 microM Y-27632 dihydrochloride (Tocris Bioscience, Bristol, United Kingdom, cat. 1254). The PDCs were cultured in complete DMEM/F12 media without 10 microM Y-27632 dihydrochloride for at least two passages prior to the screen. The established cell lines NCI-H1341 and […] were cultured in DMEM/F-12, HEPES (Invitrogen, cat. 11330032), 5% defined fetal bovine serum (HyClone Laboratories Inc., cat. SH30070.03), ITS premix universal culture supplement [insulin (5 microg/mL), transferrin (5 microg/mL), and selenious acid (5 ng/mL)] […]

[1] = second compound 0.1 µM, first compound 0.0316 µM
[2] = second compound 0.1 µM, first compound 0.1 µM
[3] = second compound 0.316 µM, first compound 0.0316 µM
[4] = second compound 0.316 µM, first compound 0.1 µM
[5] = second compound 1 µM, first compound 0.0316 µM
[6] = second compound 1 µM, first compound 0.1 µM
[7] = second compound 3.16 µM, first compound 0.0316 µM
[8] = second compound 3.16 µM, first compound 0.1 µM
[9] = second compound 10 µM, first compound 0.0316 µM
[10] = second compound 10 µM, first compound 0.1 µM
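Note: spheroids exposed to compounds for seven days after three days of growth.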

IC50 (second compound 0.1 µM): 29.2 nM
IC50 (second compound 0.316 µM): 28.1 nM
IC50 (second compound 1 µM): 30.7 nM
IC50 (second compound 3.16 µM): 25.5 nM
IC50 (second compound 10 µM): 18.4 nM
SMILES: CC[C@@]1(O)C(=O)OCc2c1cc1n(c2=O)Cc2cc3c(CN(C)C)c(O)ccc3nc2-1 + CC(CO)NC(=O)c1cc(-c2ccc(Cl)cc2)nn(-c2cnn(C)c2)c1=O
viability, T/C (second compound 0.1 µM, first compound 0.000316 µM): 101%
viability, T/C (second compound 0.1 µM, first compound 0.001 µM): 99.9%
viability, T/C (second compound 0.1 µM, first compound 0.00316 µM): 100%
viability, T/C (second compound 0.1 µM, first compound 0.01 µM): 78.6%
viability, T/C [1]: 48.6%
viability, T/C [2]: 21.8%
viability, T/C (second compound 0.316 µM, first compound 0.000316 µM): 104%
viability, T/C (second compound 0.316 µM, first compound 0.001 µM): 103%
viability, T/C (second compound 0.316 µM, first compound 0.00316 µM): 106%
viability, T/C (second compound 0.316 µM, first compound 0.01 µM): 75.2%
viability, T/C [3]: 49.3%
viability, T/C [4]: 24%
viability, T/C (second compound 1 µM, first compound 0.000316 µM): 101%
viability, T/C (second compound 1 µM, first compound 0.001 µM): 98.2%
viability, T/C (second compound 1 µM, first compound 0.00316 µM): 99.5%
viability, T/C (second compound 1 µM, first compound 0.01 µM): 77.4%
viability, T/C [5]: 50.4%
viability, T/C [6]: 23.3%
viability, T/C (second compound 3.16 µM, first compound 0.000316 µM): 91.4%
viability, T/C (second compound 3.16 µM, first compound 0.001 µM): 81.6%
viability, T/C (second compound 3.16 µM, first compound 0.00316 µM): 90.6%
viability, T/C (second compound 3.16 µM, first compound 0.01 µM): 72.5%
viability, T/C [7]: 45.1%
viability, T/C [8]: 23.6%
viability, T/C (second compound 10 µM, first compound 0.000316 µM): 68%
viability, T/C (second compound 10 µM, first compound 0.001 µM): 67.7%
viability, T/C (second compound 10 µM, first compound 0.00316 µM): 63.1%
viability, T/C (second compound 10 µM, first compound 0.01 µM): 62%
viability, T/C [9]: 40%
viability, T/C [10]: 22%

IC50 (second compound 0.1 µM): 1.79 nM
IC50 (second compound 0.316 µM): < 0.949 nM
IC50 (second compound 1 µM): 1.02 nM
IC50 (second compound 3.16 µM): < 0.949 nM
IC50 (second compound 10 µM): < 0.949 nM
SMILES: CCc1c2c(nc3ccc(O)cc13)-c1cc3c(c(=O)n1C2)COC(=O)[C@]3(O)CC + CC(CO)NC(=O)c1cc(-c2ccc(Cl)cc2)nn(-c2cnn(C)c2)c1=O
viability, T/C (second compound 0.1 µM, first compound 0.000949 µM): 55.6%
viability, T/C (second compound 0.1 µM, first compound 0.003 µM): 46.4%
viability, T/C (second compound 0.1 µM, first compound 0.00949 µM): 20.9%
viability, T/C (second compound 0.1 µM, first compound 0.03 µM): 12.4%
viability, T/C (second compound 0.1 µM, first compound 0.0949 µM): 5.44%
viability, T/C (second compound 0.1 µM, first compound 0.3 µM): 3.22%
viability, T/C (second compound 0.316 µM, first compound 0.000949 µM): 49.2%
viability, T/C (second compound 0.316 µM, first compound 0.003 µM): 42%
viability, T/C (second compound 0.316 µM, first compound 0.00949 µM): 22.7%
viability, T/C (second compound 0.316 µM, first compound 0.03 µM): 12%
viability, T/C (second compound 0.316 µM, first compound 0.0949 µM): 6.1%
viability, T/C (second compound 0.316 µM, first compound 0.3 µM): 3.45%
viability, T/C (second compound 1 µM, first compound 0.000949 µM): 49.8%
viability, T/C (second compound 1 µM, first compound 0.003 µM): 43.3%
viability, T/C (second compound 1 µM, first compound 0.00949 µM): 21.9%
viability, T/C (second compound 1 µM, first compound 0.03 µM): 12.9%
viability, T/C (second compound 1 µM, first compound 0.0949 µM): 7.22%
viability, T/C (second compound 1 µM, first compound 0.3 µM): 3.97%
viability, T/C (second compound 3.16 µM, first compound 0.000949 µM): 44.4%
viability, T/C (second compound 3.16 µM, first compound 0.003 µM): 32.9%
viability, T/C (second compound 3.16 µM, first compound 0.00949 µM): 21.2%
viability, T/C (second compound 3.16 µM, first compound 0.03 µM): 11.3%
viability, T/C (second compound 3.16 µM, first compound 0.0949 µM): 6.34%
viability, T/C (second compound 3.16 µM, first compound 0.3 µM): 3.5%
viability, T/C (second compound 10 µM, first compound 0.000949 µM): 38.2%
viability, T/C (second compound 10 µM, first compound 0.003 µM): 31.2%
viability, T/C (second compound 10 µM, first compound 0.00949 µM): 20.5%
viability, T/C (second compound 10 µM, first compound 0.03 µM): 12%
viability, T/C (second compound 10 µM, first compound 0.0949 µM): 6.27%
viability, T/C (second compound 10 µM, first compound 0.3 µM): 4.4%

IC50 (second compound 0.1 µM): < 31.6 nM
IC50 (second compound 0.316 µM): < 31.6 nM
IC50 (second compound 1 µM): < 31.6 nM
IC50 (second compound 3.16 µM): < 31.6 nM
IC50 (second compound 10 µM): < 31.6 nM
SMILES: Nc1ccn(C2OC(CO)C(O)C2(F)F)c(=O)n1 (stereo not given) + CC(CO)NC(=O)c1cc(-c2ccc(Cl)cc2)nn(-c2cnn(C)c2)c1=O
viability, T/C [1]: 11.7%
viability, T/C [2]: 10.2%
viability, T/C (second compound 0.1 µM, first compound 0.316 µM): 11.1%
viability, T/C (second compound 0.1 µM, first compound 1 µM): 11.1%
viability, T/C (second compound 0.1 µM, first compound 3.16 µM): 10.3%
viability, T/C (second compound 0.1 µM, first compound 10 µM): 6.84%
viability, T/C [3]: 11.8%
viability, T/C [4]: 11.3%
viability, T/C (second compound 0.316 µM, first compound 0.316 µM): 9.79%
viability, T/C (second compound 0.316 µM, first compound 1 µM): 10.8%
viability, T/C (second compound 0.316 µM, first compound 3.16 µM): 11.9%
viability, T/C (second compound 0.316 µM, first compound 10 µM): 6.25%
viability, T/C [5]: 12%
viability, T/C [6]: 11.8%
viability, T/C (second compound 1 µM, first compound 0.316 µM): 11.7%
viability, T/C (second compound 1 µM, first compound 1 µM): 11.1%
viability, T/C (second compound 1 µM, first compound 3.16 µM): 11.9%
viability, T/C (second compound 1 µM, first compound 10 µM): 7.23%
viability, T/C [7]: 12.2%
viability, T/C [8]: 10.9%
viability, T/C (second compound 3.16 µM, first compound 0.316 µM): 12.2%
viability, T/C (second compound 3.16 µM, first compound 1 µM): 11%
viability, T/C (second compound 3.16 µM, first compound 3.16 µM): 10.5%
viability, T/C (second compound 3.16 µM, first compound 10 µM): 6.81%
viability, T/C [9]: 14.2%
viability, T/C [10]: 12.8%
viability, T/C (second compound 10 µM, first compound 0.316 µM): 11.9%
viability, T/C (second compound 10 µM, first compound 1 µM): 11.6%
viability, T/C (second compound 10 µM, first compound 3.16 µM): 10.3%
viability, T/C (second compound 10 µM, first compound 10 µM): 8.31%
